Data on 14 molecules can be found in patent publication US10494363B2, “Non-steroidal glucocorticoid receptor modulators for local drug delivery” (LEO PHARMA A/S, priority 2015, dated 2019).

Data set [1] has as its target T1, glucocorticoid receptor (GR), recombinant full-length receptor protein (Homo sapiens, UniProt P04150).
T1 construct: 4 nM recombinant, full-length receptor protein was incubated with increasing concentrations of GR ligand; purchased Life Technologies A-15897
T1 sequence (P04150 1-777): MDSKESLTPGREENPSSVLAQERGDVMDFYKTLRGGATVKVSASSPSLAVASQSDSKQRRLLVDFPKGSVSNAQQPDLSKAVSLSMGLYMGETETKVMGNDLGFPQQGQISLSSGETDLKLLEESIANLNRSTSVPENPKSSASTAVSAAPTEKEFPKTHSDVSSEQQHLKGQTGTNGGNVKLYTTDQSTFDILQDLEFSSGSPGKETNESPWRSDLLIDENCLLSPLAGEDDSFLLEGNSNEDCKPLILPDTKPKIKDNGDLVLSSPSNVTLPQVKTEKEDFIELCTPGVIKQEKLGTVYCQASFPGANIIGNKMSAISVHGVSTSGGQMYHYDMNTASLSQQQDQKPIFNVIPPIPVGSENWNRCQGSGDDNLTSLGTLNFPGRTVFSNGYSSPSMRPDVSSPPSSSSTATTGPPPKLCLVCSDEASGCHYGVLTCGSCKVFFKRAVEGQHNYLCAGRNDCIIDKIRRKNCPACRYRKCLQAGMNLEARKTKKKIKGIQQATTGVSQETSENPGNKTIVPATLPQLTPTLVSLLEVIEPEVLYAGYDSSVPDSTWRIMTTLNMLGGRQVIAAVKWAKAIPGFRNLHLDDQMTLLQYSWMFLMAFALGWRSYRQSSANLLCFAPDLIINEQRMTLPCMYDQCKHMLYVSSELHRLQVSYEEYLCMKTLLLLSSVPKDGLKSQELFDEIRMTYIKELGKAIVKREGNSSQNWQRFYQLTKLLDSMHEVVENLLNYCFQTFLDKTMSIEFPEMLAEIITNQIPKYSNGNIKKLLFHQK
Nature of the data set: Glucocorticoid receptor binding assay (fluorescence polarization kit). Conditions: 4 nM receptor, 2.5 nM Fluormone GS1 tracer, 2h room temperature, read-out: GR binding ABS IC50. As to the method: Test compounds were diluted in DMSO over seven orders of magnitude, further diluted in assay buffer and distributed into 384-well plates. The sensitivity limit of this assay was 2-4 nM.
Data were processed by sigmoidal curve fitting.
Absolute (Abs) IC50 and Emax were determined from the curve fits.

Data set [2] concerns TNF alpha release from human PBMCs. Nature of the data set: Inhibition of TNF alpha release from human PBMCs. The data set is classed as cell-based. Conditions: PBMC, LPS 1 μg/ml, 18 hours, AlphaLISA. Summed up:
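Fresh or thawed PBMCs in serum-free medium with 0.5% HSA, stimulated with 1 μg/ml LPS plus titrated compound for 18 h at 37° C. TNF-a in supernatant by AlphaLISA; window set with a reference PDE4 inhibitor at 100×IC50. EC50 and Emax from sigmoidal fits.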

A short description of data set [3]: Human liver microsomes (HLM) assay. Conditions: hepatic extraction ratio; 0.5 μM compound, 0.5 mg/mL microsomes, NADPH, 37° C. It is filed as in vitro ADME. In a few lines:
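Compound at 0.5 μM incubated at 37° C. with human liver microsomes (0.5 mg/mL) and NADPH (1 mM) in phosphate buffer pH 7.4, 1% organic solvent; sampled 0-30 minutes. Clapp (mL/min/kg) and Eh (%) derived from depletion rate constant.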

Some results are limits rather than exact numbers.

Regarding `CC[C@H](O)C(=O)N[C@@H](C)[C@H](Oc1ccc(C(=O)N[C@H]2CCCN(C(=O)[C@H]3COC(=O)C3)C2)nc1)c1ccc(C2CC2)cc1` [Compound 10, 5-[(1R,2S)-1-(4-cyclopropylphenyl)-2-[[(2S)-2-hydroxybutanoyl]amino]propoxy]-N-[(3S)-1-[(3R)-5-oxotetrahydrofuran-3-carbonyl]-3-piperidyl]pyridine-2-carboxamide], the IC50 in data set [1] was 100 to 300 nM. The same molecule showed an EC50 in data set [2] of less than 100 nM. In data set [3], the “HLM assay Eh (%)” value is given as “* (extraction ratio (Eh)>90%)”.

Take `CCc1ccc([C@@H](Oc2ccc(C(=O)N[C@H]3CCCN(C(=O)[C@H]4COC(=O)C4)C3)nc2)[C@H](C)NC(=O)C(F)(F)F)cc1` [Compound 66, 5-[(1R,2S)-1-(4-ethylphenyl)-2-[(2,2,2-trifluoroacetyl)amino]propoxy]-N-[(3S)-1-[(3R)-5-oxotetrahydrofuran-3-carbonyl]-3-piperidyl]pyridine-2-carboxamide]: the IC50 in data set [1] was less than 100 nM. In data set [2], this molecule registered an EC50 of less than 100 nM. For the same molecule, the “HLM assay Eh (%)” value in data set [3] is given as “* (extraction ratio (Eh)>90%)”.

Regarding `C[C@H](NC(=O)c1cnsn1)[C@H](Oc1ccc(C(=O)O[C@H]2CCCN(C(=O)[C@H]3COC(=O)C3)C2)cc1)c1ccc(C2CC2)cc1` [Compound 25, [(3S)-1-[(3R)-5-oxotetrahydrofuran-3-carbonyl]-3-piperidyl] 4-[(1R,2S)-1-(4-cyclopropylphenyl)-2-(1,2,5-thiadiazole-3-carbonylamino)propoxy]benzoate], in data set [1], the IC50 is less than 100 nM. The same molecule showed an EC50 in data set [2] of less than 100 nM. Besides, the “HLM assay Eh (%)” value in data set [3] was “* (extraction ratio (Eh)>90%)”.

As for `C[C@H](NC(=O)c1ccsn1)[C@H](Oc1ccc(C(=O)O[C@H]2CCCN(C(=O)[C@H]3COC(=O)C3)C2)cc1)c1ccc(C2CC2)cc1` [Compound 44, [(3S)-1-[(3R)-5-oxotetrahydrofuran-3-carbonyl]-3-piperidyl] 4-[(1R,2S)-1-(4-cyclopropylphenyl)-2-(isothiazole-3-carbonylamino)propoxy]benzoate], in data set [1], the IC50 is less than 100 nM. The molecule further yielded an EC50 in data set [2] of less than 100 nM. The “HLM assay Eh (%)” value in data set [3] is “* (extraction ratio (Eh)>90%)”.

`C[C@H](NC(=O)c1cn(C)cn1)[C@H](Oc1ccc(C(=O)O[C@H]2CCCN(C(=O)[C@H]3COC(=O)C3)C2)cc1)c1ccc(C2CC2)cc1` [Compound 43, [(3S)-1-[(3R)-5-oxotetrahydrofuran-3-carbonyl]-3-piperidyl] 4-[(1R,2S)-1-(4-cyclopropylphenyl)-2-[(1-methylimidazole-4-carbonyl)amino]propoxy]benzoate]: the IC50 in data set [1] is less than 100 nM. For the same molecule, in data set [2], the EC50 was less than 100 nM. The “HLM assay Eh (%)” value in data set [3] was “* (extraction ratio (Eh)>90%)”.

In the case of `C[C@H](NC(=O)c1nccn1C)[C@H](Oc1ccc(C(=O)O[C@H]2CCCN(C(=O)[C@H]3COC(=O)C3)C2)cc1)c1ccc(C2CC2)cc1` [Compound 40, [(3S)-1-[(3R)-5-oxotetrahydrofuran-3-carbonyl]-3-piperidyl] 4-[(1R,2S)-1-(4-cyclopropylphenyl)-2-[(1-methylimidazole-2-carbonyl)amino]propoxy]benzoate], the IC50 in data set [1] was less than 100 nM. In addition, the EC50 in data set [2] was less than 100 nM. Further, the “HLM assay Eh (%)” value in data set [3] is reported as “* (extraction ratio (Eh)>90%)”.

Turning to `C[C@H](NC(=O)c1ccns1)[C@H](Oc1ccc(C(=O)N[C@H]2CCCN(C(=O)[C@H]3COC(=O)C3)C2)nc1)c1ccc(C2CC2)cc1` [Compound 5, N-[(1S,2R)-2-(4-cyclopropylphenyl)-1-methyl-2-[[6-[[(3S)-1-[(3R)-5-oxotetrahydrofuran-3-carbonyl]-3-piperidyl]carbamoyl]-3-pyridyl]oxy]ethyl]isothiazole-5-carboxamide], in data set [1], the IC50 was less than 100 nM. The same molecule registered an EC50 in data set [2] of less than 100 nM. The “HLM assay Eh (%)” value in data set [3] is reported as “* (extraction ratio (Eh)>90%)”.

As to `Cc1ncsc1C(=O)N[C@@H](C)[C@H](Oc1ccc(C(=O)O[C@H]2CCCN(C(=O)[C@H]3COC(=O)C3)C2)cc1)c1ccc(C2CC2)cc1` [Compound 30, [(3S)-1-[(3R)-5-oxotetrahydrofuran-3-carbonyl]-3-piperidyl] 4-[(1R,2S)-1-(4-cyclopropylphenyl)-2-[(4-methylthiazole-5-carbonyl)amino]propoxy]benzoate], the IC50 in data set [1] is less than 100 nM. The EC50 in data set [2] is 100 to 300 nM. For the same molecule, the “HLM assay Eh (%)” value in data set [3] is “* (extraction ratio (Eh)>90%)”.

On to `C[C@H](NC(=O)C(C)(C)O)[C@H](Oc1ccc(C(=O)N[C@H]2CCCN(C(=O)[C@H]3COC(=O)C3)C2)nc1)c1ccc(C2CC2)cc1` [Compound 15, 5-[(1R,2S)-1-(4-cyclopropylphenyl)-2-[(2-hydroxy-2-methyl-propanoyl)amino]propoxy]-N-[(3S)-1-[(3R)-5-oxotetrahydrofuran-3-carbonyl]-3-piperidyl]pyridine-2-carboxamide], for which the IC50 in data set [1] is greater than 300 nM. In data set [2], this molecule gave an EC50 of less than 100 nM. Further, the “HLM assay Eh (%)” value in data set [3] is “** (50%<extraction ratio (Eh)<90%)”.

For `C[C@H](NC(=O)[C@H]1CCCO1)[C@H](Oc1ccc(C(=O)O[C@H]2CCCN(C(=O)[C@H]3COC(=O)C3)C2)cc1)c1ccc(C2CC2)cc1` [Compound 37, [(3S)-1-[(3R)-5-oxotetrahydrofuran-3-carbonyl]-3-piperidyl] 4-[(1R,2S)-1-(4-cyclopropylphenyl)-2-[[(2R)-tetrahydrofuran-2-carbonyl]amino]propoxy]benzoate], in data set [1], the IC50 is less than 100 nM. In addition, in data set [2], the EC50 is less than 100 nM. Besides, in data set [3], the “HLM assay Eh (%)” value is recorded as “* (extraction ratio (Eh)>90%)”.

Regarding `C[C@H](NC(=O)C(F)(F)F)[C@H](Oc1ccc(C(=O)N[C@H]2CCCN(C(=O)[C@H]3COC(=O)C3)C2)nc1)c1ccc(C2CC2)cc1` [Compound 2, 5-[(1R,2S)-1-(4-cyclopropylphenyl)-2-[(2,2,2-trifluoroacetyl)amino]propoxy]-N-[(3S)-1-[(3R)-5-oxotetrahydrofuran-3-carbonyl]-3-piperidyl]pyridine-2-carboxamide], the IC50 in data set [1] was less than 100 nM. This molecule also showed an EC50 in data set [2] of less than 100 nM. The “HLM assay Eh (%)” value in data set [3] is given as “* (extraction ratio (Eh)>90%)”.

In the case of `Cc1cc(C(=O)N[C@@H](C)[C@H](Oc2ccc(C(=O)N[C@H]3CCCN(C(=O)[C@H]4COC(=O)C4)C3)nc2)c2ccc(C3CC3)cc2)on1` [Compound 8, N-[(1S,2R)-2-(4-cyclopropylphenyl)-1-methyl-2-[[6-[[(3S)-1-[(3R)-5-oxotetrahydrofuran-3-carbonyl]-3-piperidyl]carbamoyl]-3-pyridyl]oxy]ethyl]-3-methylisoxazole-5-carboxamide], the IC50 in data set [1] is less than 100 nM. Further, the EC50 in data set [2] was less than 100 nM. In addition, in data set [3], the “HLM assay Eh (%)” value is “* (extraction ratio (Eh)>90%)”.

In the case of `Cc1noc(C(=O)N[C@@H](C)[C@H](Oc2ccc(C(=O)O[C@H]3CCCN(C(=O)[C@H]4COC(=O)C4)C3)cc2)c2ccc(C3CC3)cc2)n1` [Compound 56, [(3S)-1-[(3R)-5-oxotetrahydrofuran-3-carbonyl]-3-piperidyl] 4-[(1R,2S)-1-(4-cyclopropylphenyl)-2-[(3-methyl-1,2,4-oxadiazole-5-carbonyl)amino]propoxy]benzoate], the IC50 in data set [1] was less than 100 nM. This molecule gave an EC50 in data set [2] of less than 100 nM. For the same molecule, in data set [3], the “HLM assay Eh (%)” value is listed as “* (extraction ratio (Eh)>90%)”.

On to `Cc1nocc1C(=O)N[C@@H](C)[C@H](Oc1ccc(C(=O)O[C@H]2CCCN(C(=O)[C@H]3COC(=O)C3)C2)cc1)c1ccc(C2CC2)cc1` [Compound 45, [(3S)-1-[(3R)-5-oxotetrahydrofuran-3-carbonyl]-3-piperidyl] 4-[(1R,2S)-1-(4-cyclopropylphenyl)-2-[(3-methylisoxazole-4-carbonyl)amino]propoxy]benzoate], for which the IC50 in data set [1] is less than 100 nM. The same molecule returned an EC50 in data set [2] of less than 100 nM. Besides, the “HLM assay Eh (%)” value in data set [3] was “* (extraction ratio (Eh)>90%)”.
